Consider six compounds from patent US10975060B2, “High relaxivity gadolinium chelate compounds for use in magnetic resonance imaging” (BAYER PHARMA AKTIENGESELLSCHAFT, priority 2016, dated 2021).

Series [1] can be described thus: Water solubility (exploratory, 10 mM Tris-HCl, 20 °C). Type of series: physicochemical. To be noted: water (10 mM Tris-HCl buffer), pH 7.4. How it is done: The exploratory water solubilities of the compounds were determined at room temperature (20° C.) in 0.5 mL buffer solution (10 mM Tris-HCl) in the microcentrifuge tubes (Eppendorf, 2.0 mL safe-lock caps). The solid compounds were added stepwise to the buffer solution. The suspension was mixed using a shaker (Heidolph Reax 2000) and treated 5 min in an ultrasound bath (Bandelin, Sonorex Super RK255H).

A short description of series [2]: Relaxivity measurements at 3.0 T (whole body MRI scanner, 37 °C) in water and human plasma. Type of series: physicochemical. The note with it: normalized to Gd, average ± standard deviation. How it is done:
Relaxivity Measurements at 3.0 T
Relaxivity measurements at 3.0 T were performed with a whole body 3.0 T MRI Scanner (Philips Intera, Philips Healthcare, Hamburg, Germany) using a knee-coil (SENSE-Knee-8, Philips Healthcare, Hamburg, Germany). The sample tubes (CryoTubetm Vials, Thermo Scientific 1.8 mL, Roskilde, Denmark) were positioned in 3 rows of 4 and 5 tubes in a plastic holder in a box filled with water. The temperature was adjusted to 37° C. For the MRI sequence the shortest possible echo-time (TE) with 7.46 milliseconds was used. The inversion times were chosen to optimize the sequence to measure T1 values corresponding to the estimated T1 range of all relaxation times of contrast media containing solutions. The following inversion times (TIs) were applied: 50, 100, 150, 200, 300, 500, 700, 1000, 1400, 2100, 3200, and 4500 milliseconds. The sequence was run with a constant relaxation delay of 3.4 seconds after the registration of the last echo (variable TR in the range from 3450 to 7900 milliseconds). For details of the fit procedure, see Rohrer et. al. (Invest. Radiol. 2005; 40, 11: 715-724). The experimental matrix of the phantom measurement was 320×320.
The relaxivities were evaluated using three different concentrations of each compound (3 concentrations between 0.05 and 2 mM).
The T1 relaxation times of Example compounds were measured in water and human plasma. Human plasma preparation: For each experiment fresh blood was taken from a volunteer using 10 mL citrate-tubes (Sarstedt S-Monovette 02.1067.001, 10 mL, Citrate). The 10 mL citrate-tubes were carefully inverted 10 times to mix blood and anticoagulant and centrifuged for 15 minutes at 1811 g at room temperature (Eppendorf, Centrifuge 5810R).
The relaxivities ri (where i=1, 2) were calculated on the basis of the measured relaxation rates Ri in water and plasma: Ri=Ri(0)+ri[CGd], where Ri(0) represent the relaxation rate of the respective solvent and CGd the concentration of the compound normalized to the Gadolinium (Table 2).

Series [3] is described as follows: Relaxivity measurements at 1.4 T (MiniSpec mq60, 60 MHz, 37 °C) in water and human plasma. It is filed as physicochemical. To be noted: 1.41 T, normalized to Gd. On the procedure: Relaxivity Measurements at 1.4 T
Relaxivity measurements at 1.41 T were performed using a MiniSpec mq60 spectrometer (Bruker Analytik, Karlsruhe, Germany) operating at a resonance frequency of 60 MHz and a temperature of 37° C. The T1 relaxation times were determined using the standard inversion recovery (IR) method with a fixed relaxation delay of at least 5×T1. The variable inversion time (TI) was calculated automatically by the standard software of the MiniSpec mq60 (8 steps). The T2 measurements were done by using a Carr-Purcell-Meiboom-Gill (CPMG) pulse sequence, applying a relaxation delay of at least 5×T1.
Each relaxivity measurement was performed using three different Gd concentrations (3 concentrations between 0.05 and 2 mM). The T1 and T2 relaxation times of the example compounds 1 to 10 were measured in different media for example in water and human plasma. Human plasma preparation: For each experiment fresh blood was taken from a volunteer using 10 mL citrate-tubes (Sarstedt S-Monovette 02.1067.001, 10 mL, Citrate). The 10 mL citrate-tubes were carefully inverted 10 times to mix blood and anticoagulant and centrifuged for 15 minutes at 1811 g at room temperature (Eppendorf, Centrifuge 5810R).
The relaxivities ri (where i=1, 2) were calculated on the basis of the measured relaxation rates Ri in water and plasma: Ri=Ri(0)+ri[CGd], where Ri(0) represent the relaxation rate of the respective solvent and CGd the concentration of the compound normalized to the Gadolinium. The Gadolinium concentrations of the investigated solutions were verified by Inductively Coupled Plasma Mass Spectrometry (ICP-MS Agilent 7500a, Waldbronn, Germany).

Series [4] in a line: Dynamic CT diffusion phantom study (dialysis cassette in fetal bovine serum). To be noted: dialysis cassette 20,000 MWCO, 20 mmol Gd/L, CT signal over 30 h. It is filed as physicochemical. On the procedure: The described dynamic CT diffusion study compares the ability of Examples 1-10 and Reference compounds 1 and 4 to pass a semipermeable membrane (20 kDa). A 128-row clinical CT device (SOMATOM Definition, 128; Siemens Healthcare, Forchheim, Germany) was used to monitor the diffusion through a semipermeable membrane at 100 kV and 104 mA. Single measurements were performed at 0 min, 1 min, 2 min, 3 min, 5 min, 10 min, 15 min, 20 min, 30 min, 45 min, 60 min, 2 h, 3 h, 5 h, 7 h, 22 h, 24 h, 30 h after placing the dialysis cassette (Slide-A-Lyser, 20,000 MWCO, 0.1-0.5 mL Capacity, Thermo Scientific, Roskilde, Denmark) filled with contrast agent in fetal bovine serum solution (FBS, Sigma, F7524). The images were reconstructed with a slice thickness of 2.4 mm and a B30 convolution kernel. The used concentration in the dialysis cassettes of the investigated Examples 1-10 and Reference compounds 1 and 4 was 20 mmol Gd/L.
The imaging results for all investigated Examples and the Reference compounds 1 and 4 for the time points 0 min and 30 h after placing the cassettes in the FBS solution are depicted in FIG. 1. For image analysis, regions of interest were manually drawn on 1 centrally located slice for each time point (a representative measurement region is indicated in FIG. 1: Image RC1).

For series [5] the following is noted: 37 °C, cited from earlier work.
[6] abbreviates: 1.5 T, bovine plasma instead of human plasma, from Rohrer et al.
Setting [7] is: 3.0 T, plasma, reference compounds marked ^ (Rohrer et al., bovine plasma per Table 1 footnote).
The mark [8] stands for this setting: 3.0 T, reference compounds marked ^ (Rohrer et al. per Table 1 footnote).

Where two headings read alike, the source gives them in different places. Where only a bound is given, the exact number is not on record here.

`CCN(CC(=O)NCC(CNC(=O)CN(CC)C(=O)CN1CCN(CC(=O)[O-])CCN(CC(=O)[O-])CCN(CC(=O)[O-])CC1)(CNC(=O)CN(CC)C(=O)CN1CCN(CC(=O)[O-])CCN(CC(=O)[O-])CCN(CC(=O)[O-])CC1)CNC(=O)CN(CC)C(=O)CN1CCN(CC(=O)[O-])CCN(CC(=O)[O-])CCN(CC(=O)[O-])CC1)C(=O)CN1CCN(CC(=O)[O-])CCN(CC(=O)[O-])CCN(CC(=O)[O-])CC1.[Gd+3].[Gd+3].[Gd+3].[Gd+3]` [Example 2, Tetragadolinium [4,10-bis(carboxylatomethyl)-7-{3,13-diethyl-8,8-bis({[(ethyl{[4,7,10-tris(carboxylatomethyl)-1,4,7,10-tetraazacyclododecan-1-yl]acetyl}amino)acetyl]-amino}methyl)-2,5,11,14-tetraoxo-15-[4,7,10-tris(carboxylatomethyl)-1,4,7,10-tetraaza-cyclododecan-1-yl]-3,6,10,13-tetraazapentadec-1-yl}-1,4,7,10-tetraazacyclododecan-1-yl]acetate]: the Solubility in series [1] was above 1000 mg/100 mL. For the same compound, the r1 human plasma in series [2] (human plasma) was determined as 11.3 ± 0.1 L/mmol/s; in series [3], 11.6 L/mmol/s. Moreover, the r1 water in series [2] (water) worked out at 9.4 ± 0.1 L/mmol/s; in series [3] it was 10.4 L/mmol/s. Moreover, the “Diffusion half-live (20 kDa)” value in series [4] came out at 13.3 h.

On to `O=C([O-])CN1CCN(CC(=O)[O-])CCN(CC(=O)N(CC(=O)NCC(CNC(=O)CN(C(=O)CN2CCN(CC(=O)[O-])CCN(CC(=O)[O-])CCN(CC(=O)[O-])CC2)c2ccccc2)(CNC(=O)CN(C(=O)CN2CCN(CC(=O)[O-])CCN(CC(=O)[O-])CCN(CC(=O)[O-])CC2)c2ccccc2)CNC(=O)CN(C(=O)CN2CCN(CC(=O)[O-])CCN(CC(=O)[O-])CCN(CC(=O)[O-])CC2)c2ccccc2)c2ccccc2)CCN(CC(=O)[O-])CC1.[Gd+3].[Gd+3].[Gd+3].[Gd+3]` [Example 9, Tetragadolinium [4,10-bis(carboxylatomethyl)-7-{2,5,11,14-tetraoxo-3,13-diphenyl-8,8-bis({[(phenyl{[4,7,10-tris(carboxylatomethyl)-1,4,7,10-tetraazacyclododecan-1-yl]-acetyl}amino)acetyl]amino}methyl)-15-[4,7,10-tris(carboxylatomethyl)-1,4,7,10-tetra-azacyclododecan-1-yl]-3,6,10,13-tetraazapentadec-1-yl}-1,4,7,10-tetraazacyclododecan-1-yl]acetate], for which the Solubility in series [1] is recorded as above 1000 mg/100 mL. In series [3], the r1 human plasma is 12.0 L/mmol/s and the r1 water was determined as 11.0 L/mmol/s. Also, the “Diffusion half-live (20 kDa)” value in series [4] is 15.1 h.

Turning to `O=C([O-])CN1CCN(CC(=O)[O-])CCN(CC(=O)N(CC(=O)NCC(CNC(=O)CN(Cc2ccccc2)C(=O)CN2CCN(CC(=O)[O-])CCN(CC(=O)[O-])CCN(CC(=O)[O-])CC2)(CNC(=O)CN(Cc2ccccc2)C(=O)CN2CCN(CC(=O)[O-])CCN(CC(=O)[O-])CCN(CC(=O)[O-])CC2)CNC(=O)CN(Cc2ccccc2)C(=O)CN2CCN(CC(=O)[O-])CCN(CC(=O)[O-])CCN(CC(=O)[O-])CC2)Cc2ccccc2)CCN(CC(=O)[O-])CC1.[Gd+3].[Gd+3].[Gd+3].[Gd+3]` [Example 10, Tetragadolinium [4,10-bis(carboxylatomethyl)-7-{3,13-dibenzyl-8,8-bis({[(benzyl{[4,7,10-tris(carboxylatomethyl)-1,4,7,10-tetraazacyclododecan-1-yl]acetyl}amino)-acetyl]amino}methyl)-2,5,11,14-tetraoxo-15-[4,7,10-tris(carboxylatomethyl)-1,4,7,10-tetraazacyclododecan-1-yl]-3,6,10,13-tetraazapentadec-1-yl}-1,4,7,10-tetraazacyclo-dodecan-1-yl]acetate], the Solubility in series [1] is listed as above 1000 mg/100 mL. In series [3], this compound showed a r1 human plasma of 13.3 L/mmol/s and a r1 water of 11.5 L/mmol/s. The “Diffusion half-live (20 kDa)” value in series [4] was found to be 15.0 h.

As to `CNC[C@H](O)[C@@H](O)[C@H](O)[C@H](O)CO.CNC[C@H](O)[C@@H](O)[C@H](O)[C@H](O)CO.O=C([O-])CN(CCN(CC(=O)[O-])CC(=O)O)CCN(CC(=O)[O-])CC(=O)O.[Gd+3]` [RC2, gadopentetate dimeglumine], the r1 human plasma in series [5] (setting [6]) was 4.1 L/mmol/s; in series [5] (setting [7]), 3.7 ± 0.2 L/mmol/s. For the same compound, the r1 water was 3.3 L/mmol/s in series [5] (1.5 T, from Rohrer et al.) and 3.1 ± 0.3 L/mmol/s in series [5] (setting [8]).

Turning to `CCOc1ccc(CC(CN(CCN(CC(=O)[O-])CC(=O)[O-])CC(=O)[O-])N(CC(=O)[O-])CC(=O)[O-])cc1.[Gd+3].[Na+].[Na+]` (stereo not drawn) [RC3, gadoxetate disodium], the results for the r1 human plasma in series [5] (setting [6]) and in series [5] (setting [7]) were 6.9 L/mmol/s and 6.2 ± 0.3 L/mmol/s, respectively. The r1 water in series [5] (1.5 T, from Rohrer et al.) is 4.7 L/mmol/s; in series [5] (setting [8]), 4.3 ± 0.3 L/mmol/s.

For the compound Gadomer-17 [RC4], the r1 human plasma in series [5] (setting [6]) was 16 L/mmol/s; in series [5] (setting [7]), 13 ± 1 L/mmol/s. Also, the r1 water in series [5] (1.5 T, from Rohrer et al.) is 17.3 L/mmol/s; in series [5] (setting [8]) it was 13.0 ± 0.7 L/mmol/s. In series [4], the “Diffusion half-live (20 kDa)” value was “No diffusion”.
